The values below come from the supplement of paper PMC10307832.

Holding throughout (assay): relative viability (nuclei count vs DMSO), 5 days (fraction); higher = more cells survive
Compound in the test “Kobe2602 + Luminespib”: C1=CC(=CC=C1NC(=S)NNC2=C(C=C(C=C2[N+](=O)[O-])C(F)(F)F)[N+](=O)[O-])F [Kobe2602] + CCNC(=O)c1noc(-c2cc(C(C)C)c(O)cc2O)c1-c1ccc(CN2CCOCC2)cc1 [Luminespib] (partner 0.01 µM)
The method in brief:
(§1)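 Dosing by pin tool came one day after lung cancer cell lines were seeded in 1536-well plates, using either one drug or a fixed anchor-drug dose plus five library-drug doses (not always all listed) in √10 steps. After 5 days, nuclei were counted on 4× images. Relative viability is treated-well nuclei count divided by vehicle-well nuclei count, and values are medians of duplicate plates.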

Compound in the test “Kobe2602 + Dasatinib”: C1=CC(=CC=C1NC(=S)NNC2=C(C=C(C=C2[N+](=O)[O-])C(F)(F)F)[N+](=O)[O-])F [Kobe2602] + Cc1nc(Nc2ncc(C(=O)Nc3c(C)cccc3Cl)s2)cc(N2CCN(CCO)CC2)n1 [Dasatinib] (partner 0.075 µM)
In short, it runs like this:
as §1

Compound in test [1]: COc1cc2nccc(Oc3ccc(NC(=O)C4(C(=O)Nc5ccc(F)cc5)CC4)cc3)c2cc1OC [Cabozantinib] + CC1(C)CCC(c2ccc(Cl)cc2)=C(CN2CCN(c3ccc(C(=O)NS(=O)(=O)c4ccc(N[C@H](CCN5CCOCC5)CSc5ccccc5)c(S(=O)(=O)C(F)(F)F)c4)cc3)CC2)C1 [Navitoclax] (partner 0.5 µM)
In short, it runs like this:
as §1

Compound in the test “Cabozantinib + Alpelisib”: COc1cc2nccc(Oc3ccc(NC(=O)C4(C(=O)Nc5ccc(F)cc5)CC4)cc3)c2cc1OC [Cabozantinib] + Cc1nc(NC(=O)N2CCC[C@H]2C(N)=O)sc1-c1ccnc(C(C)(C)C(F)(F)F)c1 [Alpelisib] (partner 2 µM)
In short, it runs like this: as §1

For UMC-11, the relative viability in the test with Kobe2602 + Luminespib (first compound 0.2 µM) came out at 1.04; in the test with Kobe2602 + Luminespib (first compound 0.6325 µM), 1.12; in the test with Kobe2602 + Luminespib (first compound 2 µM) it was 0.959; with Kobe2602 + Luminespib (first compound 6.325 µM), 1.04; with Kobe2602 + Luminespib (first compound 20 µM) it was 1.05; in the test with Kobe2602 + Dasatinib (first compound 0.2 µM) it was 0.49. In addition, the relative viability with Kobe2602 + Dasatinib (first compound 0.6325 µM) was found to be 0.449; with Kobe2602 + Dasatinib (first compound 2 µM) it was 0.449; in the test with Kobe2602 + Dasatinib (first compound 6.325 µM) it was 0.451; with Kobe2602 + Dasatinib (first compound 20 µM), 0.452; in test [1] (first compound 0.02 µM) it was 0.298; in test [1] (first compound 0.06325 µM), 0.332. Moreover, the relative viability in test [1] (first compound 0.2 µM) was 0.34; in test [1] (first compound 0.6325 µM), 0.329; in test [1] (first compound 2 µM), 0.297; with Cabozantinib + Alpelisib (first compound 0.02 µM), 0.848; with Cabozantinib + Alpelisib (first compound 0.06325 µM) it was 1.1; with Cabozantinib + Alpelisib (first compound 0.2 µM), 1.01. Also, the relative viability with Cabozantinib + Alpelisib (first compound 0.6325 µM) came to 1.05; with Cabozantinib + Alpelisib (first compound 2 µM), 1.02.
